These results are taken from patent EP3959993B1, “METHOD FOR SOLVENT FREE PRODUCTION OF AROMA CONCENTRATES” (Symrise AG, priority 2020, dated 2022).

Data set [1] is described as follows: Second oil phase obtained by adding NaCl to the water phase (Example 4). It is filed as physicochemical. Conditions: after separating oil phases I and II. As to the method:
Cross linked polystyrene was used as adsorbent material. The volume flux for loading the adsorbent was 300 ml/min.
The adsorbent was heated to 150 °C, the temperature of the applied water steam was 160 °C.
The water steam flux was 10 g/min and was applied for 100 min.
The oil and water phases were separated.
A second oil phase was separated and was collected.

Data set [2] can be described thus: Influence of the amount of NaCl on the distribution between oil phase and water phase (Example 5). It is filed as physicochemical.

On to `CCOC(=O)C(C)CC` (stereo not shown) [ethyl 2-methyl butyrate], for which the “Loss in the water phase” value in data set [1] is 0,0%. For the same molecule, the “Distribution in [%] between oil phase and water phase after condensation: Oil phase” value is listed as 66.1% in data set [2] (NaCl 0%); 95% in data set [2] (NaCl 27.8 %); 97.9% in data set [2] (NaCl 41.67%); 98.8% in data set [2] (NaCl 55.56 %); 99.7% in data set [2] (NaCl 69.44 %); 100% in data set [2] (NaCl 83.33 %). The “Distribution in [%] between oil phase and water phase after condensation: Water phase” value in data set [2] (NaCl 0%) amounted to 33.9%; in data set [2] (NaCl 27.8 %) it was 5%; in data set [2] (NaCl 41.67%), 2.1%; in data set [2] (NaCl 55.56 %), 1.2%; in data set [2] (NaCl 69.44 %) it was 0.3%; in data set [2] (NaCl 83.33 %) it was 0%.

In the case of `CCC/C=C/C=O` [trans-2-hexenal], the “Loss in the water phase” value in data set [1] is 12,5%. Also, the “Distribution in [%] between oil phase and water phase after condensation: Oil phase” value in data set [2] (NaCl 0%) is 35.5%; in data set [2] (NaCl 27.8 %), 63.6%; in data set [2] (NaCl 41.67%), 71.5%; in data set [2] (NaCl 55.56 %) it was 76.8%; in data set [2] (NaCl 69.44 %) it was 83.3%; in data set [2] (NaCl 83.33 %), 87.5%. In addition, the “Distribution in [%] between oil phase and water phase after condensation: Water phase” value in data set [2] (NaCl 0%) is given as 64.5%; in data set [2] (NaCl 27.8 %), 36.4%; in data set [2] (NaCl 41.67%), 28.5%; in data set [2] (NaCl 55.56 %), 23.2%; in data set [2] (NaCl 69.44 %), 16.7%; in data set [2] (NaCl 83.33 %), 12.5%.

With `CCCCCO` [pentanol], the “Loss in the water phase” value in data set [1] is reported as 15,4%. The “Distribution in [%] between oil phase and water phase after condensation: Oil phase” value in data set [2] (NaCl 0%) worked out at 29.5%; in data set [2] (NaCl 27.8 %) it was 56.8%; in data set [2] (NaCl 41.67%), 67.2%; in data set [2] (NaCl 55.56 %), 73.8%; in data set [2] (NaCl 69.44 %), 79.8%; in data set [2] (NaCl 83.33 %), 84.6%. Moreover, the “Distribution in [%] between oil phase and water phase after condensation: Water phase” value is 70.5% in data set [2] (NaCl 0%); 43.2% in data set [2] (NaCl 27.8 %); 32.8% in data set [2] (NaCl 41.67%); 26.2% in data set [2] (NaCl 55.56 %); 20.2% in data set [2] (NaCl 69.44 %); 15.4% in data set [2] (NaCl 83.33 %).

Turning to `CC/C=C/CCO` [trans-3-hexenol], in data set [1], the “Loss in the water phase” value is reported as 2,7%. The “Distribution in [%] between oil phase and water phase after condensation: Oil phase” value is given as 51.8% in data set [2] (NaCl 0%); 84% in data set [2] (NaCl 27.8 %); 90.5% in data set [2] (NaCl 41.67%); 93.6% in data set [2] (NaCl 55.56 %); 96.2% in data set [2] (NaCl 69.44 %); 97.3% in data set [2] (NaCl 83.33 %). Moreover, the “Distribution in [%] between oil phase and water phase after condensation: Water phase” value in data set [2] (NaCl 0%) is listed as 48.2%; in data set [2] (NaCl 27.8 %), 16%; in data set [2] (NaCl 41.67%), 9.5%; in data set [2] (NaCl 55.56 %), 6.4%; in data set [2] (NaCl 69.44 %), 3.8%; in data set [2] (NaCl 83.33 %), 2.7%.

With `O=Cc1ccccc1` [benzaldehyde], the “Loss in the water phase” value in data set [1] is reported as 19,2%. The “Distribution in [%] between oil phase and water phase after condensation: Oil phase” value in data set [2] (NaCl 0%) stood at 27%; in data set [2] (NaCl 27.8 %) it was 57.5%; in data set [2] (NaCl 41.67%) it was 64.7%; in data set [2] (NaCl 55.56 %), 70.4%; in data set [2] (NaCl 69.44 %) it was 76.7%; in data set [2] (NaCl 83.33 %), 80.8%. Besides, the “Distribution in [%] between oil phase and water phase after condensation: Water phase” value is on record as 73% in data set [2] (NaCl 0%); 42.5% in data set [2] (NaCl 27.8 %); 35.3% in data set [2] (NaCl 41.67%); 29.6% in data set [2] (NaCl 55.56 %); 23.3% in data set [2] (NaCl 69.44 %); 19.2% in data set [2] (NaCl 83.33 %).

On to `CCCCCCCO` [heptanol], for which the “Loss in the water phase” value in data set [1] was 0,0%. The “Distribution in [%] between oil phase and water phase after condensation: Oil phase” value worked out at 76.2% in data set [2] (NaCl 0%); 100% in data set [2] (NaCl 27.8 %); 100% in data set [2] (NaCl 41.67%); 100% in data set [2] (NaCl 55.56 %); 100% in data set [2] (NaCl 69.44 %); 100% in data set [2] (NaCl 83.33 %). Also, the “Distribution in [%] between oil phase and water phase after condensation: Water phase” value in data set [2] (NaCl 0%) came to 23.8%; in data set [2] (NaCl 27.8 %), 0%; in data set [2] (NaCl 41.67%), 0%; in data set [2] (NaCl 55.56 %), 0%; in data set [2] (NaCl 69.44 %), 0%; in data set [2] (NaCl 83.33 %), 0%.

As to `CC(C)CCO` [3-methyl butanol], in data set [1], the “Loss in the water phase” value was 17,9%. Also, the “Distribution in [%] between oil phase and water phase after condensation: Oil phase” value worked out at 28.4% in data set [2] (NaCl 0%); 39% in data set [2] (NaCl 27.8 %); 63.1% in data set [2] (NaCl 41.67%); 69.7% in data set [2] (NaCl 55.56 %); 68.9% in data set [2] (NaCl 69.44 %); 82.1% in data set [2] (NaCl 83.33 %). For the same molecule, the “Distribution in [%] between oil phase and water phase after condensation: Water phase” value in data set [2] (NaCl 0%) came to 71.6%; in data set [2] (NaCl 27.8 %), 61%; in data set [2] (NaCl 41.67%) it was 36.9%; in data set [2] (NaCl 55.56 %), 30.3%; in data set [2] (NaCl 69.44 %), 31.1%; in data set [2] (NaCl 83.33 %), 17.9%.

For `CCCCOC(C)=O` [butyl acetate], the “Loss in the water phase” value in data set [1] is reported as 1,4%. Further, the “Distribution in [%] between oil phase and water phase after condensation: Oil phase” value is listed as 53.5% in data set [2] (NaCl 0%); 85.6% in data set [2] (NaCl 27.8 %); 92.5% in data set [2] (NaCl 41.67%); 95% in data set [2] (NaCl 55.56 %); 97.5% in data set [2] (NaCl 69.44 %); 98.6% in data set [2] (NaCl 83.33 %). The “Distribution in [%] between oil phase and water phase after condensation: Water phase” value in data set [2] (NaCl 0%) was found to be 46.5%; in data set [2] (NaCl 27.8 %), 14.4%; in data set [2] (NaCl 41.67%), 7.5%; in data set [2] (NaCl 55.56 %) it was 5%; in data set [2] (NaCl 69.44 %), 2.5%; in data set [2] (NaCl 83.33 %), 1.4%.

On to `CCC/C=C/COC(C)=O` [trans-2-hexenyl acetate], for which the “Loss in the water phase” value in data set [1] is 0,0%. Moreover, the “Distribution in [%] between oil phase and water phase after condensation: Oil phase” value in data set [2] (NaCl 0%) is recorded as 100%; in data set [2] (NaCl 27.8 %) it was 97.2%; in data set [2] (NaCl 41.67%), 100%; in data set [2] (NaCl 55.56 %) it was 100%; in data set [2] (NaCl 69.44 %), 100%; in data set [2] (NaCl 83.33 %) it was 100%. The “Distribution in [%] between oil phase and water phase after condensation: Water phase” value in data set [2] (NaCl 0%) turned out to be 0%; in data set [2] (NaCl 27.8 %), 2.8%; in data set [2] (NaCl 41.67%), 0%; in data set [2] (NaCl 55.56 %), 0%; in data set [2] (NaCl 69.44 %), 0%; in data set [2] (NaCl 83.33 %) it was 0%.

As for `CC/C=C\CCOC(C)=O` [cis-3-hexenyl acetate], the “Loss in the water phase” value in data set [1] is given as 0,0%. Further, the “Distribution in [%] between oil phase and water phase after condensation: Oil phase” value in data set [2] (NaCl 0%), in data set [2] (NaCl 27.8 %), in data set [2] (NaCl 41.67%), in data set [2] (NaCl 55.56 %), in data set [2] (NaCl 69.44 %) and in data set [2] (NaCl 83.33 %) was 100% each time. Also, the “Distribution in [%] between oil phase and water phase after condensation: Water phase” value in data set [2] (NaCl 0%), in data set [2] (NaCl 27.8 %), in data set [2] (NaCl 41.67%), in data set [2] (NaCl 55.56 %), in data set [2] (NaCl 69.44 %) and in data set [2] (NaCl 83.33 %) was 0% throughout.
